From US10487068B2, “Pyridazine derivatives as RORc modulators” (Genentech, Inc., priority 2015, dated 2019)

Target: T1, RORc ligand binding domain (Homo sapiens, UniProt P51449)
T1 sequence (P51449 269-508 limits assumed): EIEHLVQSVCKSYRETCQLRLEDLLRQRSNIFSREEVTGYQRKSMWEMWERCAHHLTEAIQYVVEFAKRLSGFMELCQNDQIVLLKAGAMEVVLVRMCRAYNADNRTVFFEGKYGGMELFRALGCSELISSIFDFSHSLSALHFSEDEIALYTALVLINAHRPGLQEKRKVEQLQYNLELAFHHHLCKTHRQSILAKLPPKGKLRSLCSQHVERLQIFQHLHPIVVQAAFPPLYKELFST
Experiment: In Vitro RORc Ligand Binding Assay
Details: RORc IC50, radioligand 25-[3H]hydroxycholesterol 6 nM; 0.6 ug/mL RORc receptor; 3 h at 25° C.

IC50 [nM] | SMILES
3.7 | CC(C)OC(=O)c1coc(-c2cncc([C@@]34CC[C@@H](c5cc(-c6c(F)cccc6F)nnc53)C4(C)C)n2)n1 [Example 346, isopropyl 2-(6-((5R,8S)-3-(2,6-difluorophenyl)-9,9-dimethyl-5,6,7,8-tetrahydro-5,8-methanocinnolin-8-yl)pyrazin-2-yl)oxazole-4-carboxylate]
6.8 | CC(C)(O)c1ncc(-c2cncc([C@@]34CC[C@@H](c5cc(-c6c(F)cccc6F)nnc53)C4(C)C)n2)o1 [Example 347, 2-(5-(6-((5R,8S)-3-(2,6-difluorophenyl)-9,9-dimethyl-5,6,7,8-tetrahydro-5,8-methanocinnolin-8-yl)pyrazin-2-yl)oxazol-2-yl)propan-2-ol]
10.6 | C[C@@H](O)c1ccn(-c2nccc([C@@]34CC[C@@H](c5cc(-c6c(F)cccc6F)nnc53)C4(C)C)n2)n1 [Example 348]
6.3 | CC1(C)[C@H]2CC[C@]1(c1ccnc(C3CCN(S(C)(=O)=O)CC3)n1)c1nnc(-c3c(F)cccc3F)cc12 [Example 349]
16.4 | CC(C)(O)c1coc(-c2nccc([C@@]34CC[C@@H](c5cc(-c6c(F)cccc6F)nnc53)C4(C)C)n2)n1 [Example 350]
10.5 | CC(=O)N1CCC(c2nccc([C@@]34CC[C@@H](c5cc(-c6c(F)cccc6F)nnc53)C4(C)C)n2)CC1 [Example 351]
15.2 | Cc1nc(C)n(-c2nccc([C@@]34CC[C@@H](c5cc(-c6c(F)cccc6F)nnc53)C4(C)C)n2)n1 [Example 352]
10.8 | C[C@H](O)c1ccn(-c2nccc([C@@]34CC[C@@H](c5cc(-c6c(F)cccc6F)nnc53)C4(C)C)n2)n1 [Example 353]
20.7 | CC(C)(O)Cc1n[nH]c(-c2cncc([C@@]34CC[C@@H](c5cc(-c6c(F)cccc6F)nnc53)C4(C)C)n2)n1 [Example 354, 1-(5-(6-((5R,8S)-3-(2,6-difluorophenyl)-9,9-dimethyl-5,6,7,8-tetrahydro-5,8-methanocinnolin-8-yl)pyrazin-2-yl)-1H-1,2,4-triazol-3-yl)-2-methylpropan-2-ol]
12.4 | CC1(C)[C@H]2CC[C@]1(c1ccnc(C3CCN(C(=O)CO)CC3)n1)c1nnc(-c3c(F)cccc3F)cc12 [Example 355]
2.4 | CC1(C)[C@H]2CC[C@]1(c1ccnc(C3CCOCC3)n1)c1nnc(-c3c(F)cccc3F)cc12 [Example 356]
13 | CC(C)(C#N)c1n[nH]c(-c2cccc([C@@]34CC[C@@H](c5cc(-c6c(F)cccc6F)nnc53)C4(C)C)n2)n1 [Example 357, 2-(5-(6-((5R,8S)-3-(2,6-difluorophenyl)-9,9-dimethyl-5,6,7,8-tetrahydro-5,8-methanocinnolin-8-yl)pyridin-2-yl)-1H-1,2,4-triazol-3-yl)-2-methylpropanenitrile]
60.4 | Cc1nc(CO)nn1-c1nccc([C@@]23CC[C@@H](c4cc(-c5c(F)cccc5F)nnc42)C3(C)C)n1 [Example 358]
17.3 | CC1(C)[C@H]2CC[C@]1(c1ccnc(-n3cnc(=O)[nH]3)n1)c1nnc(-c3c(F)cccc3F)cc12 [Example 359]
127 | Cc1nc(=O)[nH]n1-c1nccc([C@@]23CC[C@@H](c4cc(-c5c(F)cccc5F)nnc42)C3(C)C)n1 [Example 360]
20.1 | CC(C)(C)OC(=O)N1CCC[C@@H](c2nccc([C@@]34CC[C@@H](c5cc(-c6c(F)cccc6F)nnc53)C4(C)C)n2)C1 [Example 361]
15.8 | CC(C)(C)OC(=O)N1CCCC(c2nccc([C@@]34CC[C@@H](c5cc(-c6c(F)cccc6F)nnc53)C4(C)C)n2)C1 (stereo partly shown) [Example 362]
33.5 | Cc1ncnn1-c1ncc(F)c([C@@]23CC[C@@H](c4cc(-c5c(F)cccc5F)nnc42)C3(C)C)n1 [Example 363]
50.4 | CC1(C)[C@H]2CC[C@]1(c1ccnc(C3CCCN(C(=O)CO)C3)n1)c1nnc(-c3c(F)cccc3F)cc12 (stereo partly shown) [Example 364]
3.5 | CC1(C)[C@H]2CC[C@]1(c1cncc(-c3nc([C@H](O)C(F)(F)F)co3)n1)c1nnc(-c3c(F)cccc3F)cc12 [Example 366, (S)-1-(2-(6-((5R,8S)-3-(2,6-difluorophenyl)-9,9-dimethyl-5,6,7,8-tetrahydro-5,8-methanocinnolin-8-yl)pyrazin-2-yl)oxazol-4-yl)-2,2,2-trifluoroethanol]

IC50 [nM] | SMILES
3.1 | Cc1ccn(-c2nccc([C@@]34CC[C@@H](c5cc(-c6c(F)cccc6F)nnc53)C4(C)C)n2)n1 [Example 367]
5.4 | CC1(C)[C@H]2CC[C@]1(c1ccnc(-n3cnc(CO)n3)n1)c1nnc(-c3c(F)cccc3F)cc12 [Example 368]
3.6 | CC1(C)[C@H]2CC[C@]1(c1cncc(-c3nc(CS(C)(=O)=O)co3)n1)c1nnc(-c3c(F)cccc3F)cc12 [Example 369, 2-(6-((5R,8S)-3-(2,6-difluorophenyl)-9,9-dimethyl-5,6,7,8-tetrahydro-5,8-methanocinnolin-8-yl)pyrazin-2-yl)-4-((methylsulfonyl)methyl)oxazole]
4.4 | CC(C)(O)c1ccc(-c2nccc([C@@]34CC[C@@H](c5cc(-c6c(F)cccc6F)nnc53)C4(C)C)n2)cn1 [Example 370]
3.3 | CC(C)(O)c1coc(-c2cncc([C@@]34CC[C@@H](c5cc(-c6c(F)cccc6Cl)nnc53)C4(C)C)n2)n1 [Example 371, 2-(2-(6-((5R,8S)-3-(2-chloro-6-fluorophenyl)-9,9-dimethyl-5,6,7,8-tetrahydro-5,8-methanocinnolin-8-yl)pyrazin-2-yl)oxazol-4-yl)propan-2-ol]
2.6 | CC(C)(O)c1cc(-c2nccc([C@@]34CC[C@@H](c5cc(-c6c(F)cccc6F)nnc53)C4(C)C)n2)ccn1 [Example 372]
4 | CC1(C)[C@H]2CC[C@]1(c1ccnc(-c3ccc(C(N)=O)nc3)n1)c1nnc(-c3c(F)cccc3F)cc12 [Example 373]
5.5 | CC1(C)[C@H]2CC[C@]1(c1ccnc(-c3ccc(CO)nc3)n1)c1nnc(-c3c(F)cccc3F)cc12 [Example 374]
10.4 | Cc1ncn(-c2cncc([C@]34CC[C@H](c5cc(-c6c(F)cccc6F)nnc53)C4(C)C)n2)n1 [Example 375]
27.2 | CC1(C)[C@H]2CC[C@]1(c1cncc(C(=O)N[C@@H]3COC(=O)C3)n1)c1nnc(-c3c(F)cccc3F)cc12 [Example 376, 6-((5R,8S)-3-(2,6-difluorophenyl)-9,9-dimethyl-5,6,7,8-tetrahydro-5,8-methanocinnolin-8-yl)-N-((S)-5-oxotetrahydrofuran-3-yl)pyrazine-2-carboxamide]
5.3 | CCC(O)(CC)c1coc(-c2cncc([C@@]34CC[C@@H](c5cc(-c6c(F)cccc6F)nnc53)C4(C)C)n2)n1 [Example 377, 3-(2-(6-((5R,8S)-3-(2,6-difluorophenyl)-9,9-dimethyl-5,6,7,8-tetrahydro-5,8-methanocinnolin-8-yl)pyrazin-2-yl)oxazol-4-yl)pentan-3-ol]
6.8 | C[C@H](O)c1coc(-c2cncc([C@@]34CC[C@@H](c5cc(-c6c(F)cccc6F)nnc53)C4(C)C)n2)n1 [Example 378, (S)-1-(2-(6-((5R,8S)-3-(2,6-difluorophenyl)-9,9-dimethyl-5,6,7,8-tetrahydro-5,8-methanocinnolin-8-yl)pyrazin-2-yl)oxazol-4-yl)ethanol]
7.4 | C[C@@H](O)c1coc(-c2cncc([C@@]34CC[C@@H](c5cc(-c6c(F)cccc6F)nnc53)C4(C)C)n2)n1 [Example 379, (R)-1-(2-(6-((5R,8S)-3-(2,6-difluorophenyl)-9,9-dimethyl-5,6,7,8-tetrahydro-5,8-methanocinnolin-8-yl)pyrazin-2-yl)oxazol-4-yl)ethanol]
6.1 | CC1(C)[C@H]2CC[C@]1(c1cncc(-c3nc(CC#N)co3)n1)c1nnc(-c3c(F)cccc3F)cc12 [Example 380, 2-(2-(6-((5R,8S)-3-(2,6-difluorophenyl)-9,9-dimethyl-5,6,7,8-tetrahydro-5,8-methanocinnolin-8-yl)pyrazin-2-yl)oxazol-4-yl)acetonitrile]
6 | CC1(C)[C@@H]2CC[C@@]1(c1cncc(-n3ccc(CO)n3)n1)c1nnc(-c3c(F)cccc3F)cc12 [Example 381, (1-(6-((5S,8R)-3-(2,6-difluorophenyl)-9,9-dimethyl-5,6,7,8-tetrahydro-5,8-methanocinnolin-8-yl)pyrazin-2-yl)-1H-pyrazol-3-yl)methanol]
7.3 | CC[C@@H](O)c1coc(-c2cncc([C@@]34CC[C@@H](c5cc(-c6c(F)cccc6F)nnc53)C4(C)C)n2)n1 [Example 382, (R)-1-(2-(6-((5R,8S)-3-(2,6-difluorophenyl)-9,9-dimethyl-5,6,7,8-tetrahydro-5,8-methanocinnolin-8-yl)pyrazin-2-yl)oxazol-4-yl)propan-1-ol]
8.2 | CC[C@H](O)c1coc(-c2cncc([C@@]34CC[C@@H](c5cc(-c6c(F)cccc6F)nnc53)C4(C)C)n2)n1 [Example 383, (S)-1-(2-(6-((5R,8S)-3-(2,6-difluorophenyl)-9,9-dimethyl-5,6,7,8-tetrahydro-5,8-methanocinnolin-8-yl)pyrazin-2-yl)oxazol-4-yl)propan-1-ol]
6.9 | CC1(C)[C@H]2CC[C@]1(c1cncc(-c3nc(CC(N)=O)co3)n1)c1nnc(-c3c(F)cccc3F)cc12 [Example 384, 2-(2-(6-((5R,8S)-3-(2,6-difluorophenyl)-9,9-dimethyl-5,6,7,8-tetrahydro-5,8-methanocinnolin-8-yl)pyrazin-2-yl)oxazol-4-yl)acetamide]
19.7 | CC1(C)[C@H]2CC[C@]1(c1ccnc(-c3cccnc3O)n1)c1nnc(-c3c(F)cccc3F)cc12 [Example 385]
9.8 | CC1(C)[C@H]2CC[C@]1(c1ccnc(-c3cc[nH]c(=O)c3)n1)c1nnc(-c3c(F)cccc3F)cc12 [Example 386]
